# Laboratory results published in ChEMBL document CHEMBL3046866, “Microwave-assisted synthesis and evaluation of anti-inflammatory activity of new series of N-substituted 2-butyl-5-chloro-3H-imidazole-4-carbaldehyde derivatives” (2009).
# System: Rattus norvegicus
# Assay: Anti-inflammatory activity in Rattus norvegicus albino (rat) assessed as inhibition of carrageenan-induced paw edema at 100 mg/kg, po administered 1 to 3 hr prior challenge
# Type: functional
row,SMILES,inhibition in vivo at 100 mg/kg
1,CCCCc1nc(Cl)c(C=O)n1CC(=O)c1ccc(Cl)cc1,28%
2,CCCCc1nc(Cl)c(C=O)n1CC(=O)c1ccccc1,26%
3,CCCCc1nc(Cl)c(C=O)n1Cc1cc2c(cc1C)OCO2,26%
4,CC(C)Cc1ccc(C(C)C(=O)O)cc1 (centres undefined) [IBUPROFEN],49%
